Measurements from patent US11911393B2, “Non-catalytic substrate-selective p38alpha-specific MAPK inhibitors with endothelial-stabilizing and anti-inflammatory activity, and methods of use thereof” (University of Maryland, Baltimore, priority 2016, dated 2024).

Tested on: TNFα-induced gene expression in HMVECLs
Experiment: RNASeq of TNFα-induced gene expression
Type: cell-based, human
Conditions: 100 μM UM101, 10 μM SB203580

C[S+]([O-])c1ccc(-c2nc(-c3ccncc3)c(-c3ccc(F)cc3)[nH]2)cc1 (stereo not shown) [SB203580, reference compound]
bin (gene expression response pattern) (AC003092.1 (ENSG00000236453)): 7
bin (gene expression response pattern) (AC010642.2 (ENSG00000269794)): 7
bin (gene expression response pattern) (AC116366.6 (ENSG00000234290)): 8
bin (gene expression response pattern) (ADAP1 (ENSG00000105963)): 7
bin (gene expression response pattern) (ADM2 (ENSG00000128165)): 7
bin (gene expression response pattern) (ANKRD55 (ENSG00000164512)): 8
bin (gene expression response pattern) (APOBEC3G (ENSG00000239713)): 7
bin (gene expression response pattern) (APOL2 (ENSG00000128335)): 7
bin (gene expression response pattern) (APOL6 (ENSG00000221963)): 7
bin (gene expression response pattern) (BPGM (ENSG00000172331)): 8
bin (gene expression response pattern) (C1QTNF1 (ENSG00000173918)): 7
bin (gene expression response pattern) (C6orf58 (ENSG00000184530)): 7
bin (gene expression response pattern) (C8orf4 (ENSG00000176907)): 8
bin (gene expression response pattern) (C11orf88 (ENSG00000183644)): 7
bin (gene expression response pattern) (C15orf54 (ENSG00000175746)): 8
bin (gene expression response pattern) (CCL1 (ENSG00000108702)): 7
bin (gene expression response pattern) (CD40 (ENSG00000101017)): 7
bin (gene expression response pattern) (CD69 (ENSG00000110848)): 8
bin (gene expression response pattern) (CDON (ENSG00000064309)): 7
bin (gene expression response pattern) (CLEC2D (ENSG00000069493)): 7
bin (gene expression response pattern) (CSF2 (ENSG00000164400)): 8
bin (gene expression response pattern) (CTC-231O11.1 (ENSG00000253522)): 7
bin (gene expression response pattern) (CTD-2369P2.8 (ENSG00000267607)): 7
bin (gene expression response pattern) (CX3CL1 (ENSG00000006210)): 7
bin (gene expression response pattern) (DRD4 (ENSG00000069696)): 7
bin (gene expression response pattern) (EBI3 (ENSG00000105246)): 8
bin (gene expression response pattern) (EGLN3 (ENSG00000129521)): 7
bin (gene expression response pattern) (ENKUR (ENSG00000151023)): 7
bin (gene expression response pattern) (ERVFRD-1 (ENSG00000244476)): 8
bin (gene expression response pattern) (ETV3L (ENSG00000253831)): 7
bin (gene expression response pattern) (F2RL3 (ENSG00000127533)): 8
bin (gene expression response pattern) (FAM101A (ENSG00000178882)): 8
bin (gene expression response pattern) (GCH1 (ENSG00000131979)): 7
bin (gene expression response pattern) (GPR37L1 (ENSG00000170075)): 7
bin (gene expression response pattern) (GPR182 (ENSG00000166856)): 7
bin (gene expression response pattern) (HAND1 (ENSG00000113196)): 8
bin (gene expression response pattern) (HAS2 (ENSG00000170961)): 8
bin (gene expression response pattern) (HELZ2 (ENSG00000130589)): 7
bin (gene expression response pattern) (HEPACAM (ENSG00000165478)): 8
bin (gene expression response pattern): AC073850.6 (HMVECLs, TNFα): 5
bin (gene expression response pattern): AGPAT9 (HMVECLs, TNFα): 5
bin (gene expression response pattern): ARHGAP18 (HMVECLs, TNFα): 5
bin (gene expression response pattern): ARHGEF28 (HMVECLs, TNFα): 5
bin (gene expression response pattern): ARL11 (HMVECLs, TNFα): 5
bin (gene expression response pattern): BAMBI (HMVECLs, TNFα): 1
bin (gene expression response pattern): BCL2L10 (HMVECLs, TNFα): 5
bin (gene expression response pattern): BMF (HMVECLs, TNFα): 5
bin (gene expression response pattern): C2CD4B (HMVECLs, TNFα): 5
bin (gene expression response pattern): C19orf35 (HMVECLs, TNFα): 5
bin (gene expression response pattern): CCL17 (HMVECLs, TNFα): 3
bin (gene expression response pattern): CD200 (HMVECLs, TNFα): 3
bin (gene expression response pattern): CD207 (HMVECLs, TNFα): 3
bin (gene expression response pattern): CELF2-AS1 (HMVECLs, TNFα): 5
bin (gene expression response pattern): CH25H (HMVECLs, TNFα): 5
bin (gene expression response pattern): CTA-212A2.1 (HMVECLs, TNFα): 3
bin (gene expression response pattern): CTA-221G9.12 (HMVECLs, TNFα): 5
bin (gene expression response pattern): CTB-152G17.6 (HMVECLs, TNFα): 5
bin (gene expression response pattern): CXCL3 (HMVECLs, TNFα): 5
bin (gene expression response pattern): CXCL5 (HMVECLs, TNFα): 3
bin (gene expression response pattern): CXCL10 (HMVECLs, TNFα): 3
bin (gene expression response pattern): CXCL11 (HMVECLs, TNFα): 3
bin (gene expression response pattern): DLL4 (HMVECLs, TNFα): 1
bin (gene expression response pattern): ELOVL7 (HMVECLs, TNFα): 3
bin (gene expression response pattern): EPHX4 (HMVECLs, TNFα): 5
bin (gene expression response pattern): ETV1 (HMVECLs, TNFα): 1
bin (gene expression response pattern): EXOC3L4 (HMVECLs, TNFα): 3
bin (gene expression response pattern): FAM84A (HMVECLs, TNFα): 5
bin (gene expression response pattern): FBX032 (HMVECLs, TNFα): 5
bin (gene expression response pattern): FHL2 (HMVECLs, TNFα): 5
bin (gene expression response pattern): FLRT3 (HMVECLs, TNFα): 1
bin (gene expression response pattern): FP236383.10 (HMVECLs, TNFα): 4
bin (gene expression response pattern): GBP1P1 (HMVECLs, TNFα): 3
bin (gene expression response pattern): GBP4 (HMVECLs, TNFα): 3
bin (gene expression response pattern): GFOD1 (HMVECLs, TNFα): 5
bin (gene expression response pattern): GPR68 (HMVECLs, TNFα): 2
bin (gene expression response pattern): GPR88 (HMVECLs, TNFα): 3
bin (gene expression response pattern): GRPEL2 (HMVECLs, TNFα): 5
bin (gene expression response pattern): HAS3 (HMVECLs, TNFα): 3
bin (gene expression response pattern): HEY1 (HMVECLs, TNFα): 5
bin (gene expression response pattern): HMSD (HMVECLs, TNFα): 5
bin (gene expression response pattern): HRCT1 (HMVECLs, TNFα): 5
bin (gene expression response pattern): HTR1D (HMVECLs, TNFα): 5
bin (gene expression response pattern): IBA57-AS1 (HMVECLs, TNFα): 5
bin (gene expression response pattern): ID1 (HMVECLs, TNFα): 5
bin (gene expression response pattern): IDO1 (HMVECLs, TNFα): 3
bin (gene expression response pattern): IL1B (HMVECLs, TNFα): 3
bin (gene expression response pattern): INPP4B (HMVECLs, TNFα): 5
bin (gene expression response pattern): JUNB (HMVECLs, TNFα): 5
bin (gene expression response pattern): KCNJ12 (HMVECLs, TNFα): 1
bin (gene expression response pattern): KDM7A (HMVECLs, TNFα): 5
bin (gene expression response pattern): KIAA1211L (HMVECLs, TNFα): 1
bin (gene expression response pattern): KIT (HMVECLs, TNFα): 5
bin (gene expression response pattern): KLF15 (HMVECLs, TNFα): 5
bin (gene expression response pattern): KSR2 (HMVECLs, TNFα): 5
bin (gene expression response pattern): LINC00677 (HMVECLs, TNFα): 3
bin (gene expression response pattern): LMCD1 (HMVECLs, TNFα): 5
bin (gene expression response pattern): LONRF3 (HMVECLs, TNFα): 5
bin (gene expression response pattern): LRFN1 (HMVECLs, TNFα): 5
bin (gene expression response pattern): LRFN5 (HMVECLs, TNFα): 2
bin (gene expression response pattern): LYL1 (HMVECLs, TNFα): 5
